Test system: BCL6 positive individuals
Assay: IVF ovum transfer or frozen embryo transfer after pretreatment
Assay type: in vivo
Conditions: pretreatment for two months prior to transfer, compared to no treatment, p<0.0001
Protocol: In vitro fertilized (IVF) ovum transfer or frozen embryo transfer was carried out in BCL6 positive individuals. There were three treatment groups: no treatment prior to transfer, laparoscopy with treatment of endometriosis prior to transfer and GnRH agonist suppression (Lupron) pretreatment for two months prior to transfer.

## CCNC(=O)[C@@H]1CCCN1C(=O)[C@H](CCCNC(=N)N)NC(=O)[C@H](CC(C)C)NC(=O)[C@@H](CC(C)C)NC(=O)[C@H](Cc1ccc(O)cc1)NC(=O)[C@H](CO)NC(=O)[C@H](Cc1c[nH]c2ccccc12)NC(=O)[C@H](Cc1c[nH]cn1)NC(=O)[C@@H]1CCC(=O)N1 [Lupron, leuprolide acetate]
  time to pregnancy: significantly better
  transplantation rate: significantly better
